Measured values taken from US9242981B2, “Fused pyrazole derivatives as novel ERK inhibitors” (Merck Sharp & Dohme Corp., priority 2010, dated 2016).

The molecules below were run against Mouse ERK2 protein (Mus musculus (Mouse), UniProt P63085) (assay: Coupled MEK1/ERK2 IMAP assay or Active ERK2 IMAP assay). Details: Table 1, class symbols, 30 μM ATP.
Type: biochemical
Method: 14 μl of kinase buffer (10 mM Tris.HCl pH 7.2, 10 mM MgCl2, 0.01% Tween-20, 1 mM DTT) containing 0.4 ng unphosphorylated Mouse ERK2 protein is added to each well of a black 384-well assay plate. […] DMSO concentration during initial incubation is 6.7%. […] DMSO concentration during ERK activation was 4%. After one hour, reactions are terminated by addition of 60 μl IMAP detections beads in binding buffer (Molecular Devices). Binding is allowed to equilibrate for 30 minutes before reading the plate on an LJL Analyst Fluorescence Polarization plate reader.
Activated ERK2 activity was also determined in the IMAP assay format using the procedure outlined above. […] Reactions proceeded for 30 minutes before termination by addition of […] IMAP detection beads in binding buffer. Plates were read as above after 30 minute binding equilibration.

Chain of Mouse ERK2 protein (P63085 whole entry): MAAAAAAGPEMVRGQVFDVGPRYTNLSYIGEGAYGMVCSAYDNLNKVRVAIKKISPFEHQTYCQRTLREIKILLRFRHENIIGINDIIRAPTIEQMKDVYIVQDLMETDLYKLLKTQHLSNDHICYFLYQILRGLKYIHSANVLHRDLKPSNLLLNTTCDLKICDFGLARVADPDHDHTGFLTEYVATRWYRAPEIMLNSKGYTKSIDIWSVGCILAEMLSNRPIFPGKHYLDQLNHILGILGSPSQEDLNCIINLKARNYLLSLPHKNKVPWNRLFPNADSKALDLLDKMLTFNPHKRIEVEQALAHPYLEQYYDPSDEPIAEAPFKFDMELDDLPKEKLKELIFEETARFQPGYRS

IC50 [nM] | Structure (SMILES)
1000 to 100000 | COc1ccccc1NC(=O)C1(C)CCc2[nH]nc(-c3ccncc3)c2C1 (stereo not drawn) [Compound 15, 4,5,6,7-tetrahydro-N-(2-methoxyphenyl)-5-methyl-3-(4-pyridinyl)-1H-indazole-5-carboxamide]
21 to 100 | Cc1nc2cc(-c3n[nH]c4c3CN(C(=O)N[C@@H]3CCCN(Cc5c(C)cccc5C)C3)CC4)ccc2s1 [Compound 184, N-[1-[(2,6-dimethylphenyl)methyl]-3(R)-piperidinyl]-1,4,6,7-tetrahydro-3-(2-methyl-5-benzothiazolyl)-5H-pyrazolo[4,3-c]pyridine-5-carboxamide]
101 to 1000 | Cc1cccc(C)c1CN1CC[C@@H](NC(=O)N2CCc3[nH]nc(-c4ccc(-c5ccccc5)nc4)c3C2)C1 [Compound 139, N-[1-[(2,6-dimethylphenyl)-methyl]-3(R)-pyrrolidinyl]-1,4,6,7-tetrahydro-3-(6-phenyl-3-pyridinyl)-5H-pyrazolo[4,3-c]pyridine-5-carboxamide]
< 20 | Cc1ccc(C2CN(C)CC2NC(=O)N2CCc3[nH]nc(-c4ccncc4)c3C2)cc1 (racemic) [Compound 159, 1,4,6,7-tetrahydro-N-[trans-1 methyl-4-(4-methylphenyl)-3-pyrrrolidinyl]-3-(4-pyridinyl)-5H-pyrazolo[4,3-c]pyridine-5-carboxamide]
101 to 1000 | Cc1cc(-c2n[nH]c3c2CN(C(=O)NC2CCC(c4ccccc4)N(Cc4c(F)cccc4F)C2)CC3)ccn1 (stereo not drawn) [Compound 106, N-[1-[(2,6-difluorophenyl)-methyl]-6-phenyl-3-piperidinyl]-1,4,6,7-tetrahydro-3-(2-methyl-4-pyridinyl)-5H-pyrazolo[4,3-c]pyridine-5-carboxamide]
1000 to 100000 | O=C(C1CCCc2ccccc21)N1CCc2[nH]nc(-c3ccncc3)c2C1 (stereo not drawn) [Compound 39, 4,5,6,7-tetrahydro-3-(4-pyridinyl)-5-[(1,2,3,4-tetrahydro-1-naphthalenyl)carbonyl]-1H-pyrazolo[4,3-c]pyridine]
101 to 1000 | O=C(Cc1ccccc1F)N1CCc2[nH]nc(-c3ccncc3)c2C1 [Compound 24, 5-[(2-fluorophenyl)acetyl]-4,5,6,7-tetrahydro-3-(4-pyridinyl)-1H-pyrazolo[4,3-c]pyridine]
< 20 | O=C(N[C@@H]1CCCN(Cc2csc3ccccc23)C1)N1CCc2[nH]nc(-c3ccc4c(c3)CCO4)c2C1 [Compound 183, N-[1-(benzo[b]thien-3-ylmethyl)-3(R)-piperidinyl]-3-(2,3-dihydro-5-benzofuranyl)-1,4,6,7-tetrahydro-5H-pyrazolo[4,3-c]pyridine-5-carboxamide]
< 20 | O=C(N[C@@H]1CCCN(Cc2ccccc2)C1)N1CCc2[nH]nc(-c3ccc4c(c3)CCO4)c2C1 [Compound 177, 3-(2,3-dihydro-5-benzofuranyl)-1,4,6,7-tetrahydro-N-[1-(phenylmethyl)-3(R)-piperidinyl]-5H-pyrazolo[4,3-c]pyridine-5-carboxamide]

Second part, the molecule before the results:

Structure (SMILES) | IC50 [nM]
O=C(N[C@H]1CNC[C@@H]1c1ccccc1)[C@H]1CCc2[nH]nc(-c3ccc4ncsc4c3)c2C1 (racemic) [Compound 44, 3-(6-benzothiazolyl)-4,5,6,7-tetrahydro-N-(trans-4-phenyl-3-pyrrolidinyl)-1H-indazole-5(S)-carboxamide] | 1000 to 100000
Cn1cnc(CN2CCC[C@@H](NC(=O)N3CCc4[nH]nc(-c5ccncc5)c4C3)C2)c1 [Compound 64, 1,4,6,7-tetrahydro-N-[1-[(1-methyl-1H-imidazoL-4-yl)methyl]-3(R)-piperidinyl]-3-(4-pyridinyl)-5H-pyrazolo[4,3-c]pyridine-5-carboxamide] | 101 to 1000
COc1ccc(OC)c(CC(=O)N2CCc3[nH]nc(-c4ccncc4)c3C2)c1 [Compound 23, 5-[(2,5-dimethoxyphenyl)-acetyl]-4,5,6,7-tetrahydro-3-(4-pyridinyl)-1H-pyrazolo[4,3-c]pyridine] | 101 to 1000
O=C(N[C@@H]1CCCN(Cc2csc3ccccc23)C1)N1CCc2[nH]nc(-c3ccc(-c4ccccc4)nc3)c2C1 [Compound 136, N-[1-(benzo[b]thien-3-ylmethyl)-3(R)-piperidinyl]-1,4,6,7-tetrahydro-3-(6-phenyl-3-pyridinyl)-5H-pyrazolo[4,3-c]pyridine-5-carboxamide] | 101 to 1000
O=C(Cc1ccccc1Cl)N1CCc2[nH]nc(-c3ccncc3)c2C1 [Compound 8, 5-[(2-chlorophenyl)acetyl]-4,5,6,7-tetrahydro-3-(4-pyridinyl)-1H-pyrazolo[4,3-c]pyridine] | 101 to 1000
Cc1cc(-c2n[nH]c3c2CN(C(=O)N[C@@H]2CCN(Cc4c(F)cccc4Cl)C2)CC3)ccn1 [Compound 117, N-[1-[(2-chloro-6-fluorophenyl)methyl]-3(R)-pyrrolidinyl]-1,4,6,7-tetrahydro-3-(2-methyl-4-pyridinyl)-5H-pyrazolo[4,3-c]pyridine-5-carboxamide] | 21 to 100
Cc1nc2ccc(-c3n[nH]c4c3CN(C(=O)N[C@@H]3CCCN(Cc5ccccc5)C3)CC4)cc2o1 [Compound 185, 1,4,6,7-tetrahydro-3-(2-methyl-6-benzoxazolyl)-N-[1-(phenylmethyl)-3(R)-piperidinyl]-5H-pyrazolo[4,3-c]pyridine-5-carboxamide] | 21 to 100
CC(C)C(Cn1ccnc1)NC(=O)C1(C)CCc2[nH]nc(-c3ccncc3)c2C1 (stereo not drawn) [Compound 16, 4,5,6,7-tetrahydro-N-[1-(1H-imidazoL-1-ylmethyl)-2-methylpropyl]-5-methyl-3-(4-pyridinyl)-1H-indazole-5-carboxamide] | 1000 to 100000
Cn1ncc2cc(-c3n[nH]c4c3CN(C(=O)NC3CCC5CCC3N5Cc3ccccc3F)CC4)ccc21 (stereo not drawn) [Compound 140, N-[8-[(2-fluorophenyl)methyl]-8-azabicyclo[3.2.1]oct-2-yl]-1,4,6,7-tetrahydro-3-(1-methyl-1H-indazol-5-yl)-5H-pyrazolo[4,3-c]pyridine-5-carboxamide] | < 20
O=C(N[C@@H]1CCCN(Cc2c(F)cccc2F)C1)N1CCc2[nH]nc(-c3ccc(-c4ccccc4)nc3)c2C1 [Compound 137, N-[1-[(2,6-difluorophenyl)-methyl]-3(R)-piperidinyl]-1,4,6,7-tetrahydro-3-(6-phenyl-3-pyridinyl)-5H-pyrazolo[4,3-c]pyridine-5-carboxamide] | 101 to 1000
O=C(N[C@@H]1CCCN(Cc2nccs2)C1)N1CCc2[nH]nc(-c3ccncc3)c2C1 [Compound 55, 1,4,6,7-tetrahydro-3-(4-pyridinyl)-N-[1-(2-thiazolylmethyl)-3(R)-piperidinyl]-5H-pyrazolo[4,3-c]pyridine-5-carboxamide] | 21 to 100
O=C(N[C@@H]1CCCN(Cc2c(F)cccc2F)C1)N1CCc2[nH]nc(-c3ccc4nccn4c3)c2C1 [Compound 111, N-[1-[(2,6-difluorophenyl)-methyl]-3(R)-piperidinyl]-1,4,6,7-tetrahydro-3-(imidazo[1,2-a]pyridin-6-yl)-5H-pyrazolo[4,3-c]pyridine-5-carboxamide] | < 20
Cc1cc(-c2n[nH]c3c2CN(C(=O)NC2CCCN(Cc4c(F)cccc4Cl)C2)CC3)ccn1 (stereo not drawn) [Compound 85, N-[1-[(2-chloro-6-fluorophenyl)methyl]-3-piperidinyl]-1,4,6,7-tetrahydro-3-(2-methyl-4-pyridinyl)-5H-pyrazolo[4,3-c]pyridine-5-carboxamide] | < 20
Cc1nc(CC(=O)N2CCc3[nH]nc(-c4ccncc4)c3C2)c(C)s1 [Compound 11, 5-[(2,5-dimethyl-4-thiazolyl)acetyl]-4,5,6,7-tetrahydro-3-(4-pyridinyl)-1H-pyrazolo[4,3-c]pyridine] | 1000 to 100000
CC1(C(=O)Nc2ccccc2OC(F)(F)F)CCc2[nH]nc(-c3ccncc3)c2C1 (stereo not drawn) [Compound 17, 4,5,6,7-tetrahydro-5-methyl-3-(4-pyridinyl)-N-[2-(trifluoromethoxy)phenyl]-1H-indazole-5-carboxamide] | 1000 to 100000
CC(C(=O)N1CCc2[nH]nc(-c3ccncc3)c2C1)c1ccccc1 (stereo not drawn) [Compound 40, 4,5,6,7-tetrahydro-5-(1-oxo-2-phenylpropyl)-3-(4-pyridinyl)-1H-pyrazolo[4,3-c]pyridine] | 1000 to 100000
O=C(Cc1ccccc1C(F)(F)F)N1CCc2[nH]nc(-c3ccncc3)c2C1 [Compound 26] | 101 to 1000
Cc1nc2cc(-c3n[nH]c4c3CN(C(=O)N[C@@H]3CCCN(Cc5cccc6ncccc56)C3)CC4)ccc2o1 [Compound 146, 1,4,6,7-tetrahydro-3-(2-methyl-5-benzoxazolyl)-N-[1-(5-quinolinylmethyl)-3(R)-piperidinyl]-5H-pyrazolo[4,3-c]pyridine-5-carboxamide] | 21 to 100
COc1cccc(CC(=O)N2CCc3[nH]nc(-c4ccncc4)c3C2)c1 [Compound 3, 4,5,6,7-tetrahydro-5-[(3-methoxyphenyl)acetyl]-3-(4-pyridinyl)-1H-pyrazolo[4,3-c]pyridine] | 1000 to 100000
COc1ccc(-c2n[nH]c3c2CN(C(=O)N[C@@H]2CCCN(Cc4c(F)cccc4F)C2)CC3)cn1 [Compound 132, N-[1-[(2,6-difluorophenyl)-methyl]-3(R)-piperidinyl]-1,4,6,7-tetrahydro-3-(6-Methoxy-3-pyridinyl)-5H-pyrazolo[4,3-c]pyridine-5-carboxamide] | 21 to 100

Same assay, conditions: Table 2, 30 μM ATP

IC50 [nM] | Structure (SMILES)
1.52 | Cc1ccccc1[C@@H]1CN(C)C[C@H]1NC(=O)N1CCc2[nH]nc(-c3ccc4c(c3)CCO4)c2C1 (racemic) [Compound 145, 3-(2,3-dihydro-5-benzofuranyl)-1,4,6,7-tetrahydro-N-[trans-1-methyl-4-(2-methylphenyl)-3-pyrrolidinyl]-5H-pyrazolo[4,3-c]pyridine-5-carboxamide]
